Source: patent US10435396B2, “2-substituted indazoles, methods for producing same, pharmaceutical preparations that contain same, and use of same to produce drugs” (Bayer Pharma Aktiengesellschaft, priority 2016, dated 2019)
pIC50: −log10 of the molar value.

Columns and labels:
human IRAK4 = human IRAK4 (Homo sapiens (Human), UniProt Q9NWZ3); experiment: IRAK4 kinase assay (IRAK4 TR-FRET assay); assay type: biochemical; conditions: 1 mM ATP
Method: The IRAK4-inhibitory activity of the substances according to the invention was measured in the IRAK4 TR-FRET assay (TR-FRET=Time Resolved Fluorescence Resonance Energy Transfer) described hereinafter.
Recombinant fusion protein from N-terminal GST (glutathione S-transferase) and human IRAK4, expressed in baculovirus-infected insect cells (Hi5, BTI-TN-5B1-4, cell line purchased from Invitrogen, catalogue No. B855-02) and purified via affinity chromatography, was used as enzyme. The substrate used for the kinase reaction was the biotinylated peptide biotin-Ahx-[…] (C-terminus in amide form) which can be purchased, for example, from Biosyntan GmbH (Berlin-Buch).
For the assay, 11 different concentrations in the range from 20 μM to 0.073 nM were prepared from a 2 mM solution of the test substance in DMSO. 50 nl of the respective solution were pipetted into a black low-volume 384-well microtitre plate (Greiner Bio-One, Frickenhausen, Germany), 2 μl of a solution of IRAK4 in assay buffer [50 mM HEPES pH 7.5, 5 mM MgCl2, 1.0 mM dithiothreitol, 30 μM activated sodium orthovanadate, 0.1% (w/v) of bovine gamma-globulin (BGG) 0.04% (v/v) nonidet-P40 (Sigma)] were added and the mixture was incubated for 15 min to allow prebinding of the substances to the enzyme prior to the kinase reaction. The kinase reaction was then started by addition of 3 μl of a solution of adenosine triphosphate (ATP, 1.67 mM=final concentration in 5 μl of assay volume: 1 mM) and peptide substrate (0.83 μM=final concentration in 5 μl assay volume: 0.5 μM) in assay buffer, and the resulting mixture was incubated at 22° C. for the reaction time of 45 min. The concentration of the IRAK4 was adjusted to the respective activity of the enzyme and set such that the assay was carried out in the linear range. Typical concentrations were in the order of about 0.2 nM. The reaction was stopped by addition of 5 μl of a solution of TR-FRET detection reagents [0.1 μM streptavidin-XL665 (Cisbio Bioassays; France, catalogue No. 610SAXLG)] and 1.5 nM anti-phosphoserine antibody [Merck Millipore, “STK Antibody”, catalogue No. 35-002] and 0.6 nM LANCE EU-W1024-labelled anti-mouse-IgG antibody (Perkin-Elmer, product No. AD0077; alternatively, it is possible to use a terbium cryptate-labelled anti-mouse-IgG antibody from Cisbio Bioassays) in aqueous EDTA solution (100 mM EDTA, 0.4% [w/v] bovine serum albumin [BSA] in 25 mM HEPES pH 7.5).
The resulting mixture was incubated at 22° C. for 1 h to allow formation of a complex of the biotinylated phosphorylated substrate and the detection reagents. The amount of the phosphorylated substrate was then evaluated by measuring the resonance energy transfer from europium chelate-labelled anti-mouse-IgG antibody to streptavidin-XL665. To this end, the fluorescence emissions at 620 nm and 665 nm were measured after excitation at 350 nm in a TR-FRET measuring instrument, for example a Rubystar (BMG Labtechnologies, Offenburg, Germany) or a Viewlux (Perkin-Elmer). The ratio of the emissions at 665 nm and 622 nm was taken as a measure of the amount of phosphorylated substrate. The data were normalized (enzyme reaction without test substance=0% inhibition; all other assay components but no enzyme=100% inhibition). Typically, the test substances were tested on the same microtitre plates at 11 different concentrations in the range from 20 μM to 0.073 nM (20 μM, 5.7 μM, 1.6 μM, 0.47 μM, 0.13 μM, 38 nM, 11 nM, 3.1 nM, 0.89 nM, 0.25 nM and 0.073 nM). The dilution series were prepared prior to the assay (2 mM to 7.3 nM in 100% DMSO) by serial dilutions. The IC50 values were calculated using a 4-parameter fit.

human PBMCs = experiment: In vitro LPS-induced cytokine production in human PBMCs; assay type: cell-based; conditions: 0.1 μg/ml LPS, 24 hours
Method: In Vitro LPS (Lipopolysaccharide)-Induced Cytokine Production in Human PBMCs (Peripheral Blood Mononuclear Cells)
The effect of the inventive compounds of the general formula (I) on induced cytokine production in human PBMCs was examined. Cytokine production was induced here by LPS, a TLR4 ligand, which leads to activation of the IRAK4-mediated signal path.
The human PBMCs were obtained from anti-coagulated human whole blood. To this end, 15 ml of Ficoll-Paque (Biochrom, Cat. No. L6115) were initially charged in Leucosep tubes and 20 ml of human blood were added. After centrifugation of the blood at 800 g for 15 min at room temperature, the plasma including the platelets was removed and discarded. The PBMCs were transferred into centrifugation tubes and made up with PBS (phosphate-buffered saline) (Gibco, Cat. No. 14190). The cell suspension was centrifuged at room temperature at 250 g for 10 min and the supernatant was discarded. The PBMCs were resuspended in complete medium (RPMI 1640, without L-glutamine (PAA, Cat. No. E15-039), 10% FCS; 50 U/ml penicillin, 50 μg/ml streptomycin (PAA, Cat. No. P11-010) and 1% L-glutamine (Sigma, Cat. No. G7513)).
The assay was also carried out in complete medium. The PBMCs were sown in 96-well plates at a cell density of 2.5×10^5 cells/well. The compounds according to the invention were subjected to serial dilution in a constant volume of 100% DMSO and used in the assay at 8 different concentrations in the range from 10 μM to 3 nM such that the final DMSO concentration was 0.4% DMSO. Prior to the actual stimulation, the cells were then pre-incubated therewith for 30 min. […] Cell viability was determined using the CellTiter-Glo luminescent assay (Promega, Cat. No. G7571 (G755/G756A)) in accordance with the manufacturer's instructions. The amount of secreted TNF-α in the cell culture supernatant was determined using the Human ProInflammatory 9-Plex Tissue Culture Kit (MSD, Cat. No. K15007B) in accordance with the instructions of the manufacturer. […]

human IRAK4, sequence (Q9NWZ3 whole entry): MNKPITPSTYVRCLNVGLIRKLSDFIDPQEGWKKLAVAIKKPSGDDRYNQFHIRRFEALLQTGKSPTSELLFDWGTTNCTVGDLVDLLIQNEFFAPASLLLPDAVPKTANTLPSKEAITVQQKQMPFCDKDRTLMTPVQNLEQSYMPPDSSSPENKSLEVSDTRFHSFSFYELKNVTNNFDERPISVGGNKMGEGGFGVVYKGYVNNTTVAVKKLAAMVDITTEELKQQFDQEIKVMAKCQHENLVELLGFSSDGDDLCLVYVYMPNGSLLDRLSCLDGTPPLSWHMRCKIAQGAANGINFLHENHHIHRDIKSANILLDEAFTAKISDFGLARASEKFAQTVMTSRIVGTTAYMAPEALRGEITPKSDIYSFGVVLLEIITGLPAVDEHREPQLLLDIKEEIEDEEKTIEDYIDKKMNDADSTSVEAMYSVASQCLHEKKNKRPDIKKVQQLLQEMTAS

## COc1cc2nn(C3CCN(CCC(C)(C)O)CC3)cc2cc1NC(=O)c1cccc(C(F)(F)F)n1 [Example 52, N-{2-[1-(3-Hydroxy-3-methylbutyl)piperidin-4-yl]-6-methoxy-2H-indazol-5-yl}-6-(trifluoromethyl)pyridine-2-carboxamide]
Human IRAK4
  pIC50: 9.00
Human PBMCs
  activity (secreted TNF-α, LPS-induced cytokine production in human PBMCs): ≤ 1 µM
